Experimental data reported in publication PMC6522510 (Nature Communications, 2019).
Counter-ions that a name gives are not always drawn.

Tests used:
M07e [1] = assay: cells; design: species or system AML cell lines (8); Secondary HTS, 10-point dose-response in triplicate, Cell Titer Glo viability, four-parameter fit EC50; details: M-07e, 72 h, read-out: M07e
MV4-11 [2] = assay: cells; design: species or system AML cell lines (8); Secondary HTS, 10-point dose-response in triplicate, Cell Titer Glo viability, four-parameter fit EC50; details: Homo sapiens, MV4-11, 72 h, read-out: MV4-11
MV4-11 [3] = assay: Secondary dose-response HTS, Cell Titer Glo; type: cell-based, human; details: secondary high-throughput screen; MV4-11
CMK [4] = assay: Secondary dose-response HTS, Cell Titer Glo; type: cell-based, human; details: CMK; for average effective concentration, CMK: secondary high-throughput screen
MOLM-13 [5] = tested on: MOLM-13; design: species or system AML cell lines (8); Primary HTS, single concentration about 10 uM, Cell Titer Glo viability; log10 luminescence, per cent inhibition relative to cycloheximide control; details: 72 h, relative to cycloheximide control, log10 luminescence; inhibitor
U937 [6] = tested on: U937; design: species or system AML cell lines (8); Primary HTS, single concentration about 10 uM, Cell Titer Glo viability; log10 luminescence, per cent inhibition relative to cycloheximide control; details: 72 h, relative to cycloheximide control, log10 luminescence; inhibitor
ML-2 = tested on: ML-2; design: species or system AML cell lines (8); Primary HTS, single concentration about 10 uM, Cell Titer Glo viability; log10 luminescence, per cent inhibition relative to cycloheximide control; details: 72 h, relative to cycloheximide control, log10 luminescence; inhibitor
CMS = tested on: CMS; design: species or system AML cell lines (8); Primary HTS, single concentration about 10 uM, Cell Titer Glo viability; log10 luminescence, per cent inhibition relative to cycloheximide control; details: 72 h, relative to cycloheximide control, log10 luminescence; inhibitor
MV4-11 [7] = tested on: MV4-11; design: species or system AML cell lines (8); Primary HTS, single concentration about 10 uM, Cell Titer Glo viability; log10 luminescence, per cent inhibition relative to cycloheximide control; details: 72 h, relative to cycloheximide control, log10 luminescence; inhibitor
M07e [8] = tested on: M07e; design: species or system AML cell lines (8); Primary HTS, single concentration about 10 uM, Cell Titer Glo viability; log10 luminescence, per cent inhibition relative to cycloheximide control; details: 72 h, relative to cycloheximide control, log10 luminescence; inhibitor
CMK [9] = tested on: CMK; design: species or system AML cell lines (8); Primary HTS, single concentration about 10 uM, Cell Titer Glo viability; log10 luminescence, per cent inhibition relative to cycloheximide control; details: 72 h, relative to cycloheximide control, log10 luminescence; inhibitor
CHRF288-11 = tested on: CHRF288-11; design: species or system AML cell lines (8); Primary HTS, single concentration about 10 uM, Cell Titer Glo viability; log10 luminescence, per cent inhibition relative to cycloheximide control; details: 72 h, relative to cycloheximide control, log10 luminescence; inhibitor
U937 [10] = assay: Secondary dose-response HTS, Cell Titer Glo; type: cell-based, human; details: Homo sapiens, U-937; secondary high-throughput screen; U937; read-out: average effective concentration, U937
MOLM-13 [11] = assay: Secondary dose-response HTS, Cell Titer Glo; type: cell-based, human; details: Homo sapiens; secondary high-throughput screen; MOLM-13; read-out: average effective concentration, MOLM-13
ML2 = assay: Secondary dose-response HTS, Cell Titer Glo; type: cell-based, human; details: Homo sapiens; secondary high-throughput screen; ML-2; read-out: average effective concentration, ML-2

Row | Structure (SMILES) | MOLM-13 %inh (MOLM-13 [5]) | U937 %inh (U937 [6]) | ML-2 %inh (ML-2) | CMS %inh (CMS) | MV4-11 %inh (MV4-11 [7]) | M07e %inh (M07e [8]) | CMK %inh (CMK [9]) | CHRF288-11 %inh (CHRF288-11) | other results
1 | COC[C@H](NC(=O)c1cnc(C)s1)C(=O)N[C@@H](COC)C(=O)N[C@@H](Cc1ccccc1)C(=O)[C@@]1(C)CO1 [Oprozomib] | – | – | – | – | – | – | – | – | EC50 (M07e [1]): 6.3 nM; EC50 (MV4-11 [2]): 8.6 nM
2 | Cc1ccc(NC(=O)CCCCCC(=O)Nc2ccccc2N)cc1 [PIMELIC DIPHENYLAMIDE 106] | – | – | – | – | – | – | – | – | average effective concentration, MV4-11 (MV4-11 [3]): Inactive; average effective concentration, CMK (CMK [4]): Inactive
3 | CS(=O)(=O)N1CCN(Cc2cc3nc(-c4cccc5[nH]ncc45)nc(N4CCOCC4)c3s2)CC1 [Pictilisib, reference compound] | – | – | – | – | – | – | – | – | EC50 (CMK [4]; Homo sapiens, read-out: average effective concentration, CMK): 2300 nM
4 | COc1ccc([C@@]23Oc4cc(OC)cc(OC)c4[C@]2(O)[C@H](O)[C@H](C(=O)N(C)C)[C@H]3c2ccccc2)cc1 [ROCAGLAMIDE A] | – | – | – | – | – | – | – | – | average effective concentration, MV4-11 (MV4-11 [3]): Inactive
5 | Cc1cc(Nc2ccc(NC(=O)c3ccc(Nc4ccnc5ccccc45)cc3)cc2)nc(N)n1 [SGI-1027] | – | – | – | – | – | – | – | – | average effective concentration, CMK (CMK [4]): Inactive
6 | NC(=O)c1cc(-c2ccc(Cl)cc2)cc(-c2ccc(S(N)(=O)=O)cc2)c1N [SJ000773162-1, IKK INHIBITOR XII] | 3.294% | 5.575% | 2.717% | 0.8646% | 6.438% | -0.482% | 7.074% | 5.412% | –
7 | O=C(N/N=C/c1coc2ccccc2c1=O)c1cccnc1 [SJ000773164-1, STAT5 INHIBITOR] | 0.6226% | 1.718% | 0.5689% | -3.081% | 5.196% | -2.508% | 0.4302% | 2.609% | –
8 | CCOC(=O)c1c(C)[nH]c(/C=C2\C(=O)Nc3ccccc32)c1C [SJ000773165-1, VEGFR2 KINASE INHIBITOR I] | 14.97% | -1.551% | -1.978% | -2.877% | 4.438% | -1.094% | 1.896% | 3.3% | –
9 | O=C1Cc2c([nH]c3ccc(Br)cc23)-c2ncccc2N1 [SJ000773177-1, 1-AZAKENPAULLONE] | 1.556% | 4.514% | 3.703% | 11.6% | 9.942% | 0.4716% | -2.288% | 3.099% | –
10 | Nc1[nH]nc2nnc(-c3c(-c4ccccc4)nn4ccccc34)cc12 [SJ000773182-1, FR 180204] | 10.92% | 0.5636% | 1.644% | 0.8706% | 11.54% | 4.808% | 2.552% | 4.206% | –
11 | O=C(O)c1cc2cc(O)c(O)cc2c(C(=O)c2ccc(O)c(O)c2)n1 [SJ000773184-1, NBI-31772] | 2.784% | 2.592% | 4.963% | 0.1786% | 0.9533% | 0.05281% | 20.66% | -3.882% | –
12 | N#Cc1cnc2cnc(NCc3cccnc3)cc2c1Nc1ccc(F)c(Cl)c1 [SJ000773185-1, TPL2 KINASE INHIBITOR] | 88.46% | 7.932% | -0.1066% | -1.042% | 3.7% | 3.597% | 12.32% | 6.987% | –
13 | O=C(Nc1ccccc1-c1cn2c(CN3CCNCC3)csc2n1)c1cnc2ccccc2n1 [SRT1720] | – | – | – | – | – | – | – | – | average effective concentration, MV4-11 (MV4-11 [3]): Inactive; average effective concentration, CMK (CMK [4]): Inactive
14 | CN(C)CCCNc1c2ccccc2nc2c1[nH]c1ccccc12 [SYUIQ-5] | – | – | – | – | – | – | – | – | average effective concentration, MV4-11 (MV4-11 [3]): Inactive; average effective concentration, CMK (CMK [4]): Inactive
15 | CNC(=O)c1cc(Oc2ccc(NC(=O)Nc3ccc(Cl)c(C(F)(F)F)c3)cc2)ccn1 [Sorafenib, reference compound] | – | – | – | – | – | – | – | – | EC50 (U937 [10]): > 10000 nM; average effective concentration, CMK (CMK [4]): 387; EC50 (MOLM-13 [11]): 18 nM; EC50 (ML2): > 10000 nM
16 | CC/C(=C(\c1ccccc1)c1ccc(OCCN(C)C)cc1)c1ccccc1 [TAMOXIFEN CITRATE] | – | – | – | – | – | – | – | – | EC50 (MV4-11 [2]): > 10000 nM
17 | COc1cc(OC)c(/C=C/S(=O)(=O)Cc2ccc(OC)c(NCC(=O)O)c2)c(OC)c1 [rigosertib] | – | – | – | – | – | – | – | – | EC50 (M07e [1]): > 10000 nM; EC50 (MV4-11 [2]): 12.4 nM
